# The source made the active and inactive calls.
# Columns and labels:
# [1] = tested on: H9c2; assay: cells; type: functional, cell-based; conditions: Rattus norvegicus, H9c2, Myocardium;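 also: confirmatory concentration-response retest of ultra-high-throughput screening hits for modulation of myocardial damage; cell death induced by hydrogen peroxide oxidative stress; compound pretreatment for 60 min then peroxide exposure for 2 h; potency is for protecting the cells against peroxide damage rather than for killing them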
# [2] = molecular target: T1, Calpain-2 catalytic subunit (Sus scrofa, UniProt P43367); assay: pig calpain II inhibitor potency, dose response, biochemical, fluorogenic peptide substrate (AID 1420); type: functional
# T1 sequence (P43367 whole entry): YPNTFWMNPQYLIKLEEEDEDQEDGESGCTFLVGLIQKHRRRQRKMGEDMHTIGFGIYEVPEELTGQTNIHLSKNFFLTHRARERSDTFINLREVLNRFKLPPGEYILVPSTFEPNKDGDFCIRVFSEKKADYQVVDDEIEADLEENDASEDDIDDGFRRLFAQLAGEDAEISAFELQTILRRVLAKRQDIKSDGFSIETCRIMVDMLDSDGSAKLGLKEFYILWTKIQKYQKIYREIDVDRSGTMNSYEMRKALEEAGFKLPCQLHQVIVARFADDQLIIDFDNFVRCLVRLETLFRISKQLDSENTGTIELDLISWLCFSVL
# [3] = molecular target: T2, Polyadenylate-binding protein 1 (Homo sapiens, UniProt P11940); assay: PABP1 MLLE–PAM2 interaction inhibitors, dose response, miRNA deadenylation inhibitor project, biochemical, fluorescence polarization, Cy5-PAM2 peptide, secondary (AID 602260); type: functional; conditions: read-out: IC50_Mean
# [4] = molecular target: T2, Polyadenylate-binding protein 1; assay: PABP1 MLLE–PAM2 binding inhibitor potency, dose response, biochemical, fluorescence polarization, FITC-PAM2 peptide (AID 602259); type: functional; conditions: read-out: IC50_Mean
# [5] = tested on: H4; assay: Luminescence Cell-Based Dose Response HTS to Identify Activators of 5'UTR Stem-Loop Driven Prion Protein mRNA Translation in H4 Neuroglioblastoma Cells. [Related pubchem assays: 1829 (Project Summary), 1814 (Primary HTS)]; type: functional; conditions: Homo sapiens
# [6] = Luminescence Cell-Based Dose Response HTS to Identify Activators of Luciferase Translation or Activity in H4 […] Cells. [Related pubchem assays: 1829 (Project Summary), 1814 (Primary HTS)]; type: functional
# [7] = Luminescence Cell-Based Dose Confirmation HTS to Identify Activators of 5'UTR Stem-Loop Driven Alpha-Synuclein mRNA Translation in H4 Neuroglioblastoma Cells. [Related pubchem assays: 1829 (Project Summary), 1814 (Primary HTS)]; type: functional
# [8] = molecular target: T3, Ubiquitin-conjugating enzyme E2 N (Homo sapiens, UniProt P61088); type: functional;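 also: Dose-response confirmation in a TR-FRET assay detecting UBC13-driven polyubiquitin chain formation, inhibition measured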
# T3 sequence (P61088 whole entry): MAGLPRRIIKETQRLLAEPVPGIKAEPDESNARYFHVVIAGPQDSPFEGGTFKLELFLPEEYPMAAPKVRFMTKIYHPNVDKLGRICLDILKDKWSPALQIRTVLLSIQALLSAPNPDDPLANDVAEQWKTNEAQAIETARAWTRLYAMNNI
# [9] = NIH-3T3 fibroblast cytotoxicity, dose response, cytotoxicity control, cell-based, fluorescence, Alamar Blue, secondary assay (AID 2327); type: functional;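 also: NIH-3T3 mouse fibroblasts cultured with fluconazole at 8 µg/mL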
# [10] = C. albicans growth with fluconazole, confirmation, fluorescence, retest (AID 2467); type: functional, cell-based
# [11] = molecular target: T4, Heat shock factor protein 1 (Mus musculus, UniProt P38532); assay: inhibition of MG132-induced HSE-luciferase signal, confirmation, cell-based, NIH3T3, luminescence, dose retest (AID 2382); type: functional;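 also: NIH3T3 fibroblasts with HSF1-driven luciferase reporter stressed by proteasome inhibitor MG132; luminescence from HSF1-driven luciferase expression after 8 hours of MG132 stress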
# T4 sequence (P38532 whole entry): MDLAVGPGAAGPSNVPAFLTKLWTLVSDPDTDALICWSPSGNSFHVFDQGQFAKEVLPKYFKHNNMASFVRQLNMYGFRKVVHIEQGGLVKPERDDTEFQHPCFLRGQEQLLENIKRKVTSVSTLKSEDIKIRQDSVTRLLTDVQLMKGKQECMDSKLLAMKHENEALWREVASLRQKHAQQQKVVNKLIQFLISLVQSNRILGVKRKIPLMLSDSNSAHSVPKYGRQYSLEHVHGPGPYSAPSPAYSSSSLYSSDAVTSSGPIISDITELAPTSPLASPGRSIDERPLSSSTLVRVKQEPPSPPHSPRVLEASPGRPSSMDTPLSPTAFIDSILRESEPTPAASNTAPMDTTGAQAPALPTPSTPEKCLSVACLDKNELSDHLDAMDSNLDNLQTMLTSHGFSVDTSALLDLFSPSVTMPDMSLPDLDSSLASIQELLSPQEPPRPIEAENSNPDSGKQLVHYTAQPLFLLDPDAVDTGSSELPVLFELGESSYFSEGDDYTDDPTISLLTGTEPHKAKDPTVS
# [12] = molecular target: T5, Protein skinhead-1 (Caenorhabditis elegans, UniProt P34707); type: functional
# T5 sequence (P34707 whole entry): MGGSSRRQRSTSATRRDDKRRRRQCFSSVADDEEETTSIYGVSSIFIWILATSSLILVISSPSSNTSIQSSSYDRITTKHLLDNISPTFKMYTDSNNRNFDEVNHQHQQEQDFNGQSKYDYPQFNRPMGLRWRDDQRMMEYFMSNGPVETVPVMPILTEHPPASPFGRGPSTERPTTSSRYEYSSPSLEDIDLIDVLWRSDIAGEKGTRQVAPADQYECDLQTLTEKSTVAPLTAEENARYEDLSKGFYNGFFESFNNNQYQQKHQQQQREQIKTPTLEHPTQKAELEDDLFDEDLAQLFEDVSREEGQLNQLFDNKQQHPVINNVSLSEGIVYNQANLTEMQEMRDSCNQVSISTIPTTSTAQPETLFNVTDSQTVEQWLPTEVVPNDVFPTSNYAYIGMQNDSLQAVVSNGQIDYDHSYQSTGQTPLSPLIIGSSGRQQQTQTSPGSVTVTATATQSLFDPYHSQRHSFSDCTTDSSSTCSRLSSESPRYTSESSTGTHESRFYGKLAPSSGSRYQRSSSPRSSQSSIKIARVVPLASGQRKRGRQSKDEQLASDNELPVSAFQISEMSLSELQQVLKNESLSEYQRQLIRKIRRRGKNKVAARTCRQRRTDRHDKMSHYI
# [13] = tested on: P388; assay: cells; type: functional
# [14] = tested on: SN12K1; assay: cells; type: functional
# [15] = tested on: P388/ADR; assay: cells; type: functional; conditions: Mus musculus
# [16] = Luminescence Cell-Based Dose Confirmation HTS to Identify Inhibitors of Platelet Dense Granule Release. [Related pubchem assays: 1663 (Primary HTS), 1678 (Summary of Project)]; type: functional
# [17] = molecular target: Luciferin 4-monooxygenase (Photinus pyralis, UniProt P08659); assay: firefly luciferase enzyme inhibitors, dose response, biochemical, luminescence (AID 1891)
# Luciferin 4-monooxygenase, sequence (P08659 whole entry): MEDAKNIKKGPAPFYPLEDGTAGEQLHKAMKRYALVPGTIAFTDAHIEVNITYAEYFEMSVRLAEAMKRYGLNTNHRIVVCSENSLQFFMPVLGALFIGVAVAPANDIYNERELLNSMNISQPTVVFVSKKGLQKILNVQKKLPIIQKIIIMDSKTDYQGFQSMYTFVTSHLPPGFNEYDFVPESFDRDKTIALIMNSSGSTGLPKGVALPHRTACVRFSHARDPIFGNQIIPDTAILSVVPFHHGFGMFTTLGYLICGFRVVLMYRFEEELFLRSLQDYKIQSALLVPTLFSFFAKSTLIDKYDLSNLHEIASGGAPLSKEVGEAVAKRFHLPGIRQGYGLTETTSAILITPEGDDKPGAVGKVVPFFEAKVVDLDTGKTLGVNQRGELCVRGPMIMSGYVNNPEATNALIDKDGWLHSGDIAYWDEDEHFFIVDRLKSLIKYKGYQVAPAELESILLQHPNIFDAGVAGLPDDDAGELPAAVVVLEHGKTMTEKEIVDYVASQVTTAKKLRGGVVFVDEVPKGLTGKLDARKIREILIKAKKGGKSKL
# T2 sequence (P11940 whole entry): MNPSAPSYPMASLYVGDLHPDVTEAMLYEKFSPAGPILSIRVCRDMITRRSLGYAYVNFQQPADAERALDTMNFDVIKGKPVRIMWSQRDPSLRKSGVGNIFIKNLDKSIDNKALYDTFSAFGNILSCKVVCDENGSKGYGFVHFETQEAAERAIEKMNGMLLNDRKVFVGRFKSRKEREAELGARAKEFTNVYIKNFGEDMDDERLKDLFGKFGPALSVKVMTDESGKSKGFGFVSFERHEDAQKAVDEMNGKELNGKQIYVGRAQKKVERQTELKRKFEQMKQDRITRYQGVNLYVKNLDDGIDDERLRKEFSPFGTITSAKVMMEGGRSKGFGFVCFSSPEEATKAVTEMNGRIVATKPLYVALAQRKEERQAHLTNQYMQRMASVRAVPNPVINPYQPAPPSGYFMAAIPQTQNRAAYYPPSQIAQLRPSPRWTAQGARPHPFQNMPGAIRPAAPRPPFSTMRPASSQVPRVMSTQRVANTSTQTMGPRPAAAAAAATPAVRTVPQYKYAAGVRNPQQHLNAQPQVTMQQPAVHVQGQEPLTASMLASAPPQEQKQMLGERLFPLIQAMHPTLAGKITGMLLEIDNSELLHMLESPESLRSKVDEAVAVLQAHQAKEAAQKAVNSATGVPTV
smiles,measurement,setting,value
COc1ccccc1CN(C)C(=O)c1cc(-c2cc(OC)c(OC)c(OC)c2)nc2ccccc12,IC50,[1],29.1 µM (active)
Cc1cccc(NC(=O)CN2C(=O)N/C(=C/c3cc(C)n(-c4cccnc4)c3C)C2=O)c1,IC50,[2],> 50 µM (not active)
COc1cc(NS(=O)(=O)c2ccc(NC(=S)NC(=O)c3sc4ccccc4c3Cl)cc2)nc(OC)n1,IC50,[2],> 50 µM (not active)
same,IC50,[3],> 66 µM (inactive)
same,IC50,[4],> 66 µM (inactive)
O=C(NCCc1ccccc1Cl)c1ccc2nc3ccccc3c(=O)n2c1,EC50,[5],> 120 µM (not active)
same,EC50,[6],> 120 µM (not active)
same,EC50,[7],10.2 µM (active)
same,IC50,[1],> 79 µM (inactive)
COc1ccc2[nH]cc(CCNC(=O)Nc3ccccc3)c2c1,IC50,[8],> 20 µM (inactive)
CCOC(=O)C(=NC1CCCCC1)NNc1cccc(C(F)(F)F)c1,EC50,[9],> 150 µM (inconclusive)
same,EC50,[10],> 38 µM (not active)
Cc1c(O)cc2n(c1=O)-c1ccc(Cl)cc1C2(C)C,EC50,[9],> 150 µM (inactive)
same,EC50,[10],2 µM (active)
CCc1nnc(NC(=O)CSc2nnc(CNc3ccc(OC)cc3)n2C)s1,IC50,[1],28.3 µM (active)
O=C(NCC1CCN(Cc2ccccc2F)CC1)C1CCCN(c2ncnc3c2nc2n3CCCCC2)C1 (stereo unspecified),IC50,[8],> 20 µM (inactive)
Cc1ccc(S(=O)(=O)N2CCCCC2)cc1NC(=O)COC(=O)c1ccc2c(c1)OCO2,IC50,[2],1.74 µM (not active)
CCc1ccc(C(C)NC(=O)c2cc(C)oc2C)cc1 (stereo unspecified),IC50,[1],> 79 µM (inactive)
c1cc2[nH]c(C3CC3)nc2c2nsnc12,IC50,[1],> 79 µM (inactive)
CC[C@H](C)[C@@H]1NC(=O)c2cc([N+](=O)[O-])cc(F)c2NCCCC[C@@H](C(N)=O)NC(=O)[C@H](CCCCN)NC1=O,IC50,[8],> 20 µM (inactive)
Cc1cc(C)cc(SCc2noc(C(=O)NCc3ccccc3)c2C(=O)NCc2ccccc2)c1,IC50,[2],6.27 µM (not active)
same,EC50,[11],> 195 µM (not active)
CC(C)n1c(O)c(N=NC(=O)CNC(=O)CCc2ccccc2)c2ccccc21,IC50,[2],> 50 µM (not active)
COc1ccc(CCNC(=O)CCC2COc3ccccc3O2)cc1OC (stereo unspecified),EC50,[9],> 150 µM (inactive)
same,EC50,[10],16.9 µM (active)
Cc1cc(C(=O)CSc2nnc(C3COc4ccccc4O3)n2C)c(C)n1-c1ccc(F)cc1 (stereo unspecified),IC50,[12],> 100 µM (inactive)
Fc1ccc(-c2csc(N3CCSCC3)n2)cc1,IC50,[12],> 100 µM (inactive)
C#CCOCCOCCOCCNc1nc(N2CCN(C(=O)[C@H]([C@@H](C)CC)n3cc([C@@H](N)Cc4ccc(O)cc4)nn3)CC2)nc(N2CCN(C(=O)[C@H](CCCCN)n3cc([C@@H](N)CO)nn3)CC2)n1,IC50,[8],> 20 µM (inactive)
O=C(Nc1nc(-c2cc(F)ccc2F)cs1)C1=NN(c2ccccc2)C(=O)CC1,IC50,[1],> 79 µM (inactive)
CCOc1ccc2nc(N(CCCN(C)C)C(=O)c3ccc(C(=O)c4ccccc4)cc3)sc2c1,IC50,[8],> 20 µM (inactive)
Cc1ccc(CN(C(=O)CNC(=O)c2cccs2)C(C(=O)NCC2CCCO2)c2ccccc2)cc1 (stereo unspecified),IC50,[1],> 79 µM (inactive)
COc1ccc(CN(C(=O)c2oc3ccccc3c2C)C2CCS(=O)(=O)C2)cc1 (stereo unspecified),IC50,[12],> 100 µM (inactive)
Cc1ccc(NCc2nnc(SCC(=O)N(Cc3ccccc3)C(C)(C)C)o2)c(C)c1,IC50,[2],5.13 µM (not active)
Clc1ccc(Cc2noc(-c3cccs3)n2)cc1,IC50,[12],4.34 µM (active)
COc1ccc(S(=O)(=O)N2CC(C(=O)O)Oc3ccccc32)cc1 (stereo unspecified),IC50,[12],> 100 µM (inactive)
C=C1C(=O)OCC2C(C(=O)O)=CC3C(C)C(C)=CC123 (stereo unspecified),GI50,"[13]; Mus musculus, P388",5.21 µM (inactive)
same,GI50,"[14]; Homo sapiens, SN12K1",9.08 µM (inactive)
same,GI50,[15],5.77 µM (inactive)
CC(=O)c1ccc2c(c1)c1c(C)c3c[n+](C)ccc3c(C)c1n2C,GI50,"[13]; Mus musculus, P388",0.634 µM (active)
same,GI50,"[14]; Homo sapiens, SN12K1",1.34 µM (inactive)
same,GI50,[15],3 µM (inactive)
Clc1ccccc1-c1nc(N/N=C/c2cccnc2)c2ccccc2n1,EC50,[16],> 112 µM (not active)
same,EC50,[17],> 112 µM (not active)
same,IC50,[1],> 79 µM (inactive)
CC1OC(O[C@@H]2C=C3CC[C@@H]4[C@H](CC[C@]5(C)[C@@H](c6ccc(=O)oc6)CC[C@]45O)[C@@]3(C)CC2)C(O)C(O)C1O (stereo partly specified),GI50,"[13]; Mus musculus, P388",20.7 µM (inactive)
same,GI50,[15],47.1 µM (inactive)
CN(C)CC(CC1=C(CC(CN(C)C)N(C)C)CCC1)N(C)C (stereo unspecified),GI50,"[13]; Mus musculus, P388",> 100 µM (inactive)
same,GI50,"[14]; Homo sapiens, SN12K1",> 100 µM (inactive)
same,GI50,[15],> 100 µM (inactive)
CCCCCCCCCCSCC(CO)NC(=O)/C=C/c1c(C)[nH]c(=O)[nH]c1=O (stereo unspecified),GI50,[13],0.479 µM (active)
same,GI50,"[13]; Mus musculus, P388",0.284 µM (active)
same,GI50,[14],1.26 µM (inactive)
same,GI50,"[14]; Homo sapiens, SN12K1",1.05 µM (active)
COc1cccc2c1C(=O)c1c(O)c3c(c(O)c1C2=O)CC(O)(C(C)=O)CC3O (stereo unspecified),GI50,"[13]; Mus musculus, P388",1.09 µM (active)
same,GI50,"[14]; Homo sapiens, SN12K1",2.07 µM (inactive)
same,GI50,[15],1.81 µM (inactive)
CN(C)C(=O)/C=C/c1c[nH]c(=O)[nH]c1=O,GI50,"[13]; Mus musculus, P388",> 281 µM (inactive)
same,GI50,"[14]; Homo sapiens, SN12K1",> 500 µM (inactive)
same,GI50,[15],> 281 µM (inactive)
Nc1ccc(/N=N/c2ccc(/C=C/c3ccc(/N=N/c4ccc(N)c5ccc(S(=O)(=O)O)cc45)cc3S(=O)(=O)O)c(S(=O)(=O)O)c2)c2cc(S(=O)(=O)O)ccc12,GI50,"[13]; Mus musculus, P388",> 100 µM (inactive)
same,GI50,"[14]; Homo sapiens, SN12K1",> 100 µM (inactive)
same,GI50,[15],> 100 µM (inactive)
CN(C)/N=C/c1cc([N+](=O)[O-])ccc1O,IC50,[2],13.8 µM (not active)
Cc1[nH]c2ccccc2c1/C=N\NC(=O)Cn1nnc(-c2ccccc2)n1,IC50,[2],> 50 µM (not active)
C(=C\c1ccccc1)/C=N/Nc1nc(N2CCCCC2)nc(N2CCCCC2)n1,EC50,[9],> 150 µM (inactive)
same,EC50,[10],> 38 µM (not active)
